Data from patent publication US20200316090A1, “TARGETED THERAPEUTICS” (MADRIGAL PHARMACEUTICALS, INC., priority 2012, published 2020).
Read-outs that look alike come from different tables or passages of the source.

Tests used:
[1] = Artificial membrane permeability assay (PAMPA)
[2] = Tissue distribution of SDC-TRAP and degradation products in tumor-bearing mice (plasma, tumor, heart); assay type: in vivo, Female SCID Mouse (H1975)
[3] = Permeability (10^−6 cm/s), 5 h incubation, peak area used in place of concentration, first table
[4] = Permeability (cm/s), 5 h incubation, peak area used in place of concentration, first table
[5] = female, SCID, mouse, in vivo, read-out: Tumor/Plasma Ratio
[6] = female, SCID, mouse, in vivo, read-out: Plasma Conc.
[7] = tissue distribution of SDC-TRAP-0056, 6 h
[8] = tissue distribution of SDC-TRAP-0056, 12 h
[9] = tissue distribution of SDC-TRAP-0056, 24 h

Mass Retention (%) ([1]; 5 h incubation, first table)	Papp at 5 h [1, 3]	Papp at 5 h [1, 4]	Structure (SMILES)	Mass Retention (%) ([1]; same protocol, second table)	also measured
–	–	–	COc1ccc(-c2cnoc2-c2cc(OC)c(OC)c(OC)c2)cc1OC(=O)N1CCN(Cc2ccc(-n3c(O)nnc3-c3cc(C(C)C)c(O)cc3O)cc2)CC1 [SDC-TRAP-0098, 2-Methoxy-5-(5-(3,4,5-trimethoxyphenyl)isoxazol-4-yl)phenyl-4-(4-(3-(2,4-dihydroxy-5-isopropylphenyl)-5-hydroxy-4H-1,2,4-triazol-4-yl)benzyl) piperazine-1-carboxylate]	–	Tumor Conc. ([2]; tissue distribution of SDC-TRAP-0098, 1 h): 0.250 nmol/g of tissue; Tumor Conc. ([2]; tissue distribution of SDC-TRAP-0098, 6 h): 0.0122 nmol/g of tissue; Tumor Conc. ([2]; tissue distribution of SDC-TRAP-0098, 24 h): BQL; Tumor Conc. ([2]; tissue distribution of SDC-TRAP-0098, 48 h): BQL
–	–	–	CCNC(=O)c1nnc(-c2cc(C(C)C)c(O)cc2O)n1-c1ccc2c(ccn2CCC2CCN(C(=O)O[C@]3(CC)C(=O)OCc4c3cc3n(c4=O)Cc4c-3nc3ccc(O)cc3c4CC)CC2)c1 [SDC-TRAP-0208, (S)-4,11-diethyl-9-hydroxy-3,14-dioxo-3,4,12,14-tetrahydro-1H-pyrano[3′,4′:6,7]indolizino[1,2-b]quinolin-4-yl 4-(2-(5-(3-(2,4-dihydroxy-5-isopropylphenyl)-5-(ethylcarbamoyl)-4H-1,2,4-triazol-4-yl)-1H-indol-1-yl)ethyl)piperidine-1-carboxylate]	25.0%	–
17.6%	0.05 ×10⁻⁶ cm/s	0.05 ×10⁻⁶ cm/s	CC(=O)O[C@@]12CO[C@@H]1C[C@H](O)[C@@]1(C)C(=O)[C@H](O)C3=C(C)[C@@H](OC(=O)[C@H](O)[C@@H](NC(=O)OC(C)(C)C)c4ccccc4)C[C@@](O)([C@@H](OC(=O)c4ccccc4)[C@H]21)C3(C)C [Docetaxel, docetaxel, reference compound]	–	–
–	–	–	CCc1c2c(nc3ccc(O)cc13)-c1cc3c(c(=O)n1C2)COC(=O)[C@@]3(CC)OC(=O)N1CCC(CCn2ccc3cc(-n4c(O)nnc4-c4cc(C(C)C)c(O)cc4O)ccc32)CC1 [SDC-TRAP-0064, (S)-4,11-diethyl-9-hydroxy-3,14-dioxo-3,4,12,14-tetrahydro-1H-pyrano[3′,4′:6,7]indolizino[1,2-b]quinolin-4-yl 4-(2-(5-(3-(2,4-dihydroxy-5-isopropylphenyl)-5-hydroxy-4H-1,2,4-triazol-4-yl)-1H-indol-1-yl)ethyl)piperidine-1-carboxylate]	48.4%	–
–	–	–	CC(C)c1cc(-c2nnc(O)n2-c2ccc(CN3CCN(C(=O)Oc4ccc(COC(=O)Nc5cccc6c5CN(C5CCC(=O)NC5=O)C6=O)cc4)CC3)c(F)c2)c(O)cc1O (stereo not drawn) [SDC-TRAP-0171, 4-((((2-(2,6-dioxopiperidin-3-yl)-1-oxoisoindolin-4-yl)carbamoyl)oxy)methyl)phenyl-4-(4-(3-(2,4-dihydroxy-5-isopropylphenyl)-5-hydroxy-4H-1,2,4-triazol-4-yl)-2-fluorobenzyl)piperazine-1-carboxylate]	–	Kp at 6 h [2, 5]: 407
21.0%	0.0033 ×10⁻⁶ cm/s	0.0033 ×10⁻⁶ cm/s	COc1cccc2c1C(=O)c1c(O)c3c(c(O)c1C2=O)C[C@@](O)(C(=O)CO)C[C@@H]3O[C@H]1C[C@H](N)[C@H](O)[C@H](C)O1 [Doxorubicin, doxorubicin, reference compound]	–	–
21.0%	0.00689 ×10⁻⁶ cm/s	0.00689 ×10⁻⁶ cm/s	CC(C)c1cc(-c2nnc(C(=O)NCCCCCS(N)(=O)=O)n2-c2ccc(CN3CCOCC3)cc2)c(O)cc1O [SDC-TRAP-0232, 5-(2,4-dihydroxy-5-isopropylphenyl)-4-(4-(morpholinomethyl)phenyl)-N-(5-sulfamoylpentyl)-4H-1,2,4-triazole-3-carboxamide]	–	–
–	–	–	CCNC(=O)c1nnc(-c2cc(C(C)C)c(O)cc2O)n1-c1ccc(C(=O)N2CCN(c3cc(C)c(OC(=O)Nc4cccc5c4CN(C4CCC(=O)NC4=O)C5=O)c(C)c3)CC2)cc1 (stereo not drawn) [SDC-TRAP-0178, 4-(4-(4-(3-(2,4-dihydroxy-5-isopropylphenyl)-5-(ethylcarbamoyl)-4H-1,2,4-triazol-4-yl)benzoyl)piperazin-1-yl)-2,6-dimethylphenyl (2-(2,6-dioxopiperidin-3-yl)-1-oxoisoindolin-4-yl)carbamate]	–	concentration at 1 h [2, 6]: 217 µM; concentration at 6 h [2, 6]: 4.51 µM; concentration at 24 h [2, 6]: 28 nM; concentration at 48 h [2, 6]: 241 nM; Kp at 1 h [2, 5]: 1.59; Kp at 6 h [2, 5]: 100; Kp at 24 h [2, 5]: 100; Kp at […] [2, 5]: 0.0179
10.8%	0.0283 ×10⁻⁶ cm/s	0.0283 ×10⁻⁶ cm/s	CC(C)c1cc(-c2nnc(O)n2-c2ccc3c(ccn3CCOCCNC(=O)CCn3cc(F)c(=O)[nH]c3=O)c2)c(O)cc1O [SDC-TRAP-0048, N-(2-(2-(5-(3-(2,4-dihydroxy-5-isopropylphenyl)-5-hydroxy-4H-1,2,4-triazol-4-yl)-1H-indol-1-yl)ethoxy)ethyl)-3-(5-fluoro-2,4-dioxo-3,4-dihydropyrimidin-1 (2H)-yl)propanamide]	–	–
10.2%	0.00859 ×10⁻⁶ cm/s	0.00859 ×10⁻⁶ cm/s	CCNC(=O)c1nnc(-c2cc(C(C)C)c(O)cc2O)n1-c1ccc(CN2CCC(C(=O)N[C@@H](CC(C)C)C(=O)Nc3cccc4c3CN(C3CCC(=O)NC3=O)C4=O)CC2)cc1 (stereo partly drawn) [SDC-TRAP-0193, 1-(4-(3-(2,4-dihydroxy-5-isopropylphenyl)-5-(ethylcarbamoyl)-4H-1,2,4-triazol-4-yl)benzyl)-N-((2S)-1-((2-(2,6-dioxopiperidin-3-yl)-1-oxoisoindolin-4-yl)amino)-4-methyl-1-oxopentan-2-yl)piperidine-4-carboxamide]	–	–
–	–	–	CCNC(=O)c1nnc(-c2cc(C(C)C)c(O)cc2O)n1-c1ccc(OC2CCN(c3cnc(C(=O)N[C@H]4C[C@H](O[C@H]5C[C@](O)(C(=O)CO)Cc6c(O)c7c(c(O)c65)C(=O)c5c(OC)cccc5C7=O)O[C@@H](C)[C@H]4O)cn3)CC2)cc1 [SDC-TRAP-0200, 5-(4-(4-(3-(2,4-dihydroxy-5-isopropylphenyl)-5-(ethylcarbamoyl)-4H-1,2,4-triazol-4-yl)phenoxy)piperidin-1-yl)-N-((2S,3S,4S,6R)-3-hydroxy-2-methyl-6-(((1S,3S)-3,5,12-trihydroxy-3-(2-hydroxyacetyl)-10-methoxy-6,11-dioxo-1,2,3,4,6,11-hexahydrotetracen-1-yl)oxy)tetrahydro-2H-pyran-4-yl)pyrazine-2-carboxamide]	10.6%	–
14.1%	0.0124 ×10⁻⁶ cm/s	0.0124 ×10⁻⁶ cm/s	CC(C)c1cc(-c2nnc(O)n2-c2ccc(CN3CCN(C(=O)CCn4cc(F)c(=O)[nH]c4=O)CC3)cc2)c(O)cc1O [SDC-TRAP-0049, 1-(3-(4-(4-(3-(2,4-dihydroxy-5-isopropylphenyl)-5-hydroxy-4H-1,2,4-triazol-4-yl)benzyl)piperazin-1-yl)-3-oxopropyl)-5-fluoropyrimidine-2,4 (1H,3H)-dione]	–	–
–	–	–	CCNC(=O)c1nnc(-c2cc(C(C)C)c(O)cc2O)n1-c1ccc2c(ccn2CCC2CCN(C(=O)Oc3ccc4nc5c(c(CC)c4c3)Cn3c-5cc4c(c3=O)COC(=O)[C@]4(O)CC)CC2)c1 [SDC-TRAP-0205, (S)-4,11-diethyl-4-hydroxy-3,14-dioxo-3,4,12,14-tetrahydro-1H-pyrano[3′,4′:6,7]indolizino[1,2-b]quinolin-9-yl 4-(2-(5-(3-(2,4-dihydroxy-5-isopropylphenyl)-5-(ethylcarbamoyl)-4H-1,2,4-triazol-4-yl)-1H-indol-1-yl)ethyl)piperidine-1-carboxylate]	10.9%	–
–	–	–	CCc1c2c(nc3ccc(O)cc13)-c1cc3c(c(=O)n1C2)COC(=O)C3(CC)OC(=O)CN1CCN(c2ccc(-n3c(O)nnc3-c3cc(C(C)C)c(O)cc3O)cc2)CC1 (stereo not drawn) [SDC-TRAP-0056, 4,11-diethyl-9-hydroxy-3,14-dioxo-3,4,12,14-tetrahydro-1H-pyrano[3′,4′:6,7]indolizino[1,2-b]quinolin-4-yl 2-(4-(4-(3-(2,4-dihydroxy-5-isopropylphenyl)-5-hydroxy-4H-1,2,4-triazol-4-yl)phenyl)piperazin-1-yl)acetate]	–	Kp ([2]; female, SCID, mouse, in vivo, tissue distribution of SDC-TRAP-0056, 6 h, read-out: Tumor/Plasma Ratio): 0.844; Kp ([2]; female, SCID, mouse, in vivo, tissue distribution of SDC-TRAP-0056, 12 h, read-out: Tumor/Plasma Ratio): 40.3; Kp ([2]; female, SCID, mouse, in vivo, tissue distribution of SDC-TRAP-0056, 24 h, read-out: Tumor/Plasma Ratio): 40.3; Kp ([2]; female, SCID, mouse, in vivo, tissue distribution of SDC-TRAP-0056, […], read-out: Tumor/Plasma Ratio): 0.0193; Plasma Conc. [2, 7]: 5.88 µM; Tumor Conc. [2, 7]: 4.97 nmol/g of tissue; Plasma Conc. [2, 8]: 0.0542 µM; Tumor Conc. [2, 8]: 2.19 nmol/g of tissue; Plasma Conc. [2, 9]: 0.0542 µM; Tumor Conc. [2, 9]: 2.19 nmol/g of tissue; Tumor Conc. ([2]; tissue distribution of SDC-TRAP-0056, 48 h): 0.188 nmol/g of tissue

Structure (SMILES)	Mass Retention (%) ([1]; 5 h incubation, first table)	Papp at 5 h [1, 3]	Papp at 5 h [1, 4]	Mass Retention (%) ([1]; same protocol, second table)	also measured
CCNC(=O)c1nnc(-c2cc(C(C)C)c(O)cc2O)n1-c1ccc(CN2CCC(C(=O)N3CCN(c4cc(C)c(OC(=O)Nc5cccc6c5CN(C5CCC(=O)NC5=O)C6=O)c(C)c4)CC3)CC2)cc1 (stereo not drawn) [SDC-TRAP-0195, 4-(4-(1-(4-(3-(2,4-dihydroxy-5-isopropylphenyl)-5-(ethylcarbamoyl)-4H-1,2,4-triazol-4-yl)benzyl)piperidine-4-carbonyl)piperazin-1-yl)-2,6-dimethylphenyl (2-(2,6-dioxopiperidin-3-yl)-1-oxoisoindolin-4-yl)carbamate]	27.1%	–	–	–	–
CCc1c2c(nc3ccc(OC(=O)N4CCC[C@H]4C(=O)N4CCC(CCn5ccc6cc(-n7c(O)nnc7-c7cc(C(C)C)c(O)cc7O)ccc65)CC4)cc13)-c1cc3c(c(=O)n1C2)COC(=O)[C@]3(O)CC [SDC-TRAP-0210]	34.8%	–	–	72.2%	Papp at 5 h [1]: 0.00899 ×10⁻⁶ cm/s; Permeability (10^−6 cm/s) ([1]; same protocol, second table): 0.00899 10^−6 cm/s
Cn1c(=O)c2c(ncn2C)n(C)c1=O [Caffeine]	20.8%	11.7 ×10⁻⁶ cm/s	11.7 ×10⁻⁶ cm/s	−0.11%	Papp at 5 h ([1]; Permeability (10^−6 cm/s), same protocol, second table): 14.3 ×10⁻⁶ cm/s; Papp at 5 h ([1]; Permeability (cm/s), same protocol, second table): 14.3 ×10⁻⁶ cm/s
